Source: paper PMC8070256, “Feasibility of Developing Radiotracers for MDM2: Synthesis and Preliminary Evaluation of an ^18F-Labeled Analogue of the MDM2 Inhibitor SP-141” (Pharmaceuticals, 2021)
Where “and” joins values, the source holds several entries; their conditions need not be identical. Equal entries are not always repeated.

Tested on: athymic mice bearing HepG2 xenografts
Test: Tissue distribution studies in HepG2 xenografts
Format: in vivo
Experimental: Based on the promising results obtained with [^18F]1 in vitro, tissue distribution studies were conducted in athymic mice bearing subcutaneous HepG2 tumor xenografts. HepG2 tumor model was selected because of the higher uptake of [^18F]1 in HepG2 cells and a substantial increase in the uptake in response to co-incubation with 100 µM SP-141, compared to that in MCF-7 cells (Figure 5). Groups of five mice were injected intravenously with [^18F]1 and euthanized at 0.5, 1, or 2 h post injection to determine the tissue distribution of [^18F]1. A separate group of animals (n = 4) were injected intraperitoneally with SP-141 (1.2 mg per mouse; ~140 µM) 30 min before [^18F]1 injection to assess the specificity of tracer uptake in tumors. […] At 30 min post injection, radioactivity levels in most organs were ≥3 %ID/g and decreased to ~2 %ID/g by 2 h.
All animal experiments were conducted in accordance with the regulations of the Duke University Institutional Animal Care and Use Committee (IACUC) under an IACUC-approved protocol. Tissue distribution studies were conducted in mice bearing subcutaneous HepG2 tumor xenografts. To generate the tumor model, male athymic mice (Jackson Labs, Farmington, CT, USA) were injected with 5 × 10^6 HepG2 cells suspended in DMEM and Matrigel (Corning®, Corning, NY, USA, 1:1, 100 µL) in the flank; tissue distribution studies were initiated when the tumor volume reached 200 mm^3. For these studies, groups of five mice were injected with [^18F]1 by the intravenous route and euthanized at 0.5, 1, or 2 h post injection (n = 5 per time point) to assess the tissue distribution of [^18F]1 as described previously. A separate group of animals (n = 4) was injected with SP-141 (1.2 mg per mouse; ~140 µM) by intraperitoneal injection 30 min before [^18F]1 injection to assess the specificity of tracer uptake. The concentration of ^18F activity was calculated as the percentage injected dose per gram tissue (%ID/g).

[1] = 1 h Block: SP-141 (1.2 mg) i.p. 30 min before i.v. [^18F]1

Biodistribution, Blood (30 min post i.v. injection): 4.2 ± 0.6 %ID/g
Biodistribution, Bone (30 min post i.v. injection): 3.1 ± 0.6 %ID/g
Biodistribution, Brain (30 min post i.v. injection): 2.9 ± 0.8 %ID/g
Biodistribution, Heart (30 min post i.v. injection): 4.1 ± 0.7 %ID/g
Biodistribution, Kidneys (30 min post i.v. injection): 3.7 ± 0.8 %ID/g
Biodistribution, Large Intestine (30 min post i.v. injection): 6.1 ± 1.7 %ID/g
Biodistribution, Liver (30 min post i.v. injection): 3.2 ± 0.5 %ID/g
Biodistribution, Lungs (30 min post i.v. injection): 3.9 ± 0.6 %ID/g
Biodistribution, Muscle (30 min post i.v. injection): 3.5 ± 0.8 %ID/g
Biodistribution, Skin (30 min post i.v. injection): 3.7 ± 0.7 %ID/g
Biodistribution, Small Intestine (30 min post i.v. injection): 3.9 ± 1.0 %ID/g
Biodistribution, Spleen (30 min post i.v. injection): 3.3 ± 0.4 %ID/g
Biodistribution, Stomach (30 min post i.v. injection): 5.1 ± 2.0 %ID/g
Biodistribution, Tumor (HepG2 xenograft) (30 min post i.v. injection): 3.3 ± 0.3 %ID/g
Biodistribution, Blood [1]: 2.7 ± 0.9 %ID/g
Biodistribution, Bone [1]: 1.9 ± 0.4 %ID/g
Biodistribution, Brain [1]: 3.3 ± 0.5 %ID/g
Biodistribution, Heart [1]: 3.7 ± 0.3 %ID/g
Biodistribution, Kidneys [1]: 3.8 ± 0.4 %ID/g
Biodistribution, Large Intestine [1]: 3.4 ± 1.4 %ID/g
Biodistribution, Liver [1]: 3.3 ± 0.6 %ID/g
Biodistribution, Lungs [1]: 3.5 ± 0.8 %ID/g
Biodistribution, Muscle [1]: 3.3 ± 0.4 %ID/g
Biodistribution, Skin [1]: 3.0 ± 0.7 %ID/g
Biodistribution, Small Intestine [1]: 4.1 ± 0.3 %ID/g
Biodistribution, Spleen [1]: 3.0 ± 0.6 %ID/g
Biodistribution, Stomach [1]: 1.6 ± 1.2 %ID/g
Biodistribution, Tumor (HepG2 xenograft) [1]: 3.2 ± 0.7 %ID/g
Biodistribution, Blood (1 h post i.v. injection): 4.1 ± 0.6 %ID/g
Biodistribution, Bone (1 h post i.v. injection): 3.6 ± 1.0 %ID/g
Biodistribution, Brain (1 h post i.v. injection): 2.6 ± 0.8 %ID/g
Biodistribution, Heart (1 h post i.v. injection): 4.0 ± 0.7 %ID/g
Biodistribution, Kidneys (1 h post i.v. injection): 3.3 ± 0.6 %ID/g
Biodistribution, Large Intestine (1 h post i.v. injection): 7.7 ± 1.8 %ID/g
Biodistribution, Liver (1 h post i.v. injection): 2.8 ± 0.4 %ID/g
Biodistribution, Lungs (1 h post i.v. injection): 3.8 ± 0.7 %ID/g
Biodistribution, Muscle (1 h post i.v. injection): 2.6 ± 0.6 %ID/g
Biodistribution, Skin (1 h post i.v. injection): 3.4 ± 0.5 %ID/g
Biodistribution, Small Intestine (1 h post i.v. injection): 4.0 ± 0.7 %ID/g
Biodistribution, Spleen (1 h post i.v. injection): 2.7 ± 0.7 %ID/g
Biodistribution, Stomach (1 h post i.v. injection): 2.7 ± 0.8 %ID/g
Biodistribution, Tumor (HepG2 xenograft) (1 h post i.v. injection): 3.0 ± 0.7 %ID/g
Biodistribution, Blood (2 h post i.v. injection): 3.3 ± 0.8 %ID/g
Biodistribution, Bone (2 h post i.v. injection): 5.4 ± 0.8 %ID/g
Biodistribution, Brain (2 h post i.v. injection): 2.0 ± 0.7 %ID/g
Biodistribution, Heart (2 h post i.v. injection): 3.3 ± 0.9 %ID/g
Biodistribution, Kidneys (2 h post i.v. injection): 2.4 ± 0.6 %ID/g
Biodistribution, Large Intestine (2 h post i.v. injection): 7.1 ± 2.9 %ID/g
Biodistribution, Liver (2 h post i.v. injection): 2.4 ± 0.5 %ID/g
Biodistribution, Lungs (2 h post i.v. injection): 2.1 ± 0.8 %ID/g
Biodistribution, Muscle (2 h post i.v. injection): 2.6 ± 0.7 %ID/g
Biodistribution, Skin (2 h post i.v. injection): 3.1 ± 0.4 %ID/g
Biodistribution, Small Intestine (2 h post i.v. injection): 3.0 ± 0.5 %ID/g
Biodistribution, Spleen (2 h post i.v. injection): 2.1 ± 0.4 %ID/g
Biodistribution, Stomach (2 h post i.v. injection): 2.1 ± 0.7 %ID/g
Biodistribution, Tumor (HepG2 xenograft) (2 h post i.v. injection): 3.0 ± 0.8 %ID/g
Radioactivity levels in most organs / normal tissues (2 h post injection): ~ 2 %ID/g and 2–3 %ID/g
Tumor-to-muscle ratio (2 h post injection): 1.14 ± 0.18
Tumor-to-normal tissue (tumor-to-background) ratios (2 h post injection): < 2
Tumor uptake and retention in HepG2 xenografts (over the 2-h observation period): ~ 3 %ID/g
SMILES: [18F]CCOc1ccc2[nH]c3c(-c4cccc5ccccc45)nccc3c2c1 [[^18F]1]
